Source: US11999727B2 (Tango Therapeutics, Inc., priority 2020, dated 2024)
Read-outs that look alike come from different tables or passages of the source.

Tests used:
PRMT5 [1] = target: T1, PRMT5 (Homo sapiens, UniProt O14744); assay: PRMT5 biochemical IC50 assay with MTA as cofactor
T1 construct: purchased Viva (custom protein)

PRMT5 [2] = target: T1, PRMT5; assay: PRMT5 biochemical IC50 assay with SAM as cofactor
[3] = system: HAP1 MTAP-deleted cell line; assay: Viability assay, MTAP-deleted cell line; assay type: cell-based; conditions: Homo sapiens
From the text: Table 1 additionally indicates IC50 values in a viability assay for the MTAP-deleted cell line (column 10), indicating the effect of treatment with compound on cell survival.

PRMT5 [4] = target: T1, PRMT5; assay: PRMT5 biochemical IC50 assay with no cofactor
From the text: Table 1 indicates IC50 values (μM) against PRMT5 for exemplary compounds in the presence of SAM as cofactor, with no cofactor, and with MTA as cofactor, respectively (columns 4-6). […] Ki values can be calculated from the IC50 values as described in the Examples section. As detailed in the Examples section, for the assay performed in the presence of SAM, IC50=Ki×1.5 (Ki=IC50/1.5).

[5] = system: HAP1 MTAP-deleted cell line; assay: SDMA in-cell western assay, HAP1 MTAP-deleted; assay type: cell-based; conditions: for IC50: Homo sapiens; for MTAP intact/deleted ratio: IC50 ratio HAP1 MTAP-intact vs HAP1 MTAP-deleted, SDMA in-cell western
Method in brief: (§1)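 IC50 values come from SDMA signal quantified by in-cell western in two HAP1 lines, one with native MTAP levels and one lacking MTAP.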

[6] = system: HAP1 MTAP-intact cell line; assay: SDMA in-cell western assay, HAP1 MTAP-intact; assay type: cell-based; conditions: Homo sapiens
Method in brief: as §1

[7] = PRMT5, MTA as cofactor, read-out: MTA IC50
[8] = PRMT5, SAM as cofactor, read-out: SAM IC50
[9] = HAP1, viability assay, MTAP-deleted cell line, read-out: HAP1 MTAP deleted viability
[10] = PRMT5, no cofactor, read-out: No Cofactor/rel IC50
[11] = HAP1, SDMA in-cell western, HAP1 MTAP-deleted, read-out: HAP1 MTAP deleted IC50
[12] = HAP1, SDMA in-cell western, HAP1 MTAP-intact, read-out: MTAP HAP1 intact IC50

T1 sequence (O14744 whole entry): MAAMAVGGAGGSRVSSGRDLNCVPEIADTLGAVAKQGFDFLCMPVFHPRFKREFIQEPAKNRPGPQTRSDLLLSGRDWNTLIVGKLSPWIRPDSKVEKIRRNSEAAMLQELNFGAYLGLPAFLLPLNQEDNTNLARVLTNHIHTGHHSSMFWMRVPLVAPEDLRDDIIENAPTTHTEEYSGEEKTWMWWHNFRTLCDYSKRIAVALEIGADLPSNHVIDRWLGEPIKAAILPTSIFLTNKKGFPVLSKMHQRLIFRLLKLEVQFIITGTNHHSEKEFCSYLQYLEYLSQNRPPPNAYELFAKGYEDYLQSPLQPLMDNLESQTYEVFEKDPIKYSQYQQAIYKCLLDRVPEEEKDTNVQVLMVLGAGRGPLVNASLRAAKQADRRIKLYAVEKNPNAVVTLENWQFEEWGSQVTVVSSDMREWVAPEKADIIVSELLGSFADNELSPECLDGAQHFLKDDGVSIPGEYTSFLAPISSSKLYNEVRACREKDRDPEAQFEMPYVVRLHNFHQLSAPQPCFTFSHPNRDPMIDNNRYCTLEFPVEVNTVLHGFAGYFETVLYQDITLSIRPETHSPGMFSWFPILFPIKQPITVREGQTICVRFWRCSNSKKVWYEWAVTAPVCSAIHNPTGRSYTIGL
T1 sequence (Q9BQA1 whole entry partner): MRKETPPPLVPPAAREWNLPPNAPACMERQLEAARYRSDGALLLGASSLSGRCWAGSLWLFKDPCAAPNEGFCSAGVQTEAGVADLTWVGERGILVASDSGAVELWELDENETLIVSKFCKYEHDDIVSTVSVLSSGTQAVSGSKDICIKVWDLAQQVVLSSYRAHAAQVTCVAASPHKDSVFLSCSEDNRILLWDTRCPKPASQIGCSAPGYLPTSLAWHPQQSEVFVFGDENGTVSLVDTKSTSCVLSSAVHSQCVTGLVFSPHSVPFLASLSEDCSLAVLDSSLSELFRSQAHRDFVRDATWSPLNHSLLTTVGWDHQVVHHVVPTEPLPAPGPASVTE

Row | Compound | IC50 (PRMT5 [1]; [7]) [nM] | IC50 (PRMT5 [2]; [8]) [nM] | IC50 [3, 9] [nM] | IC50 (PRMT5 [4]; [10]) [nM] | IC50 [5, 11] [nM] | MTAP intact/deleted ratio [5] | IC50 [6, 12] [nM] | IC50 (PRMT5 [1]; MTA IC50, PRMT5, MTA as cofactor) [nM] | IC50 (PRMT5 [2]; SAM IC50, PRMT5, SAM as cofactor) [nM] | IC50 ([3]; HAP1, read-out: HAP1 MTAP deleted viability) [nM] | IC50 (PRMT5 [4]; No Cofactor/rel IC50, PRMT5, no cofactor) [nM] | IC50 ([5]; HAP1, read-out: HAP1 MTAP deleted IC50) [nM] | IC50 ([6]; HAP1, read-out: MTAP HAP1 intact IC50) [nM]
1 | CCc1cc(NC(=O)C(=O)N2C[C@@H](C)CC[C@@H]2c2ccc3sc(C4(F)CCN(C)CC4)nc3c2)cnc1N [Compound 1160, N-(6-amino-5-ethylpyridin-3-yl)-2-((2R,5S)-2-(2-(4-fluoro-1-methylpiperidin-4-yl)benzo[d]thiazol-5-yl)-5-methylpiperidin-1-yl)-2-oxoacetamide] | < 50 | < 50 | < 1000 | < 50 | < 100 | A (an IC50 ratio greater than or equal to 10 fold) | < 100 | – | – | – | – | – | –
2 | COc1ncc(NC(=O)C(=O)N2C[C@@H](C)CC[C@@H]2c2ccc3sc(CN(C)C)nc3c2)cc1C(N)=O [Compound 1162, 5-(2-((2R,5S)-2-(2-((dimethylamino)methyl)benzo[d]thiazol-5-yl)-5-methylpiperidin-1-yl)-2-oxoacetamido)-2-methoxynicotinamide] | < 50 | 50 to 500 | < 1000 | < 50 | < 100 | A (an IC50 ratio greater than or equal to 10 fold) | 100 to 1000 | – | – | – | – | – | –
3 | CCN1CCC(c2nc3cc([C@H]4CC[C@H](C)CN4C(=O)C(=O)Nc4cnc(OC)c(C(N)=O)c4)ccc3s2)CC1 [Compound 1164, 5-(2-((2R,5)-2-(2-(1-ethylpiperidin-4-yl)benzo[d]thiazol-5-yl)-5-methylpiperidin-1-yl)-2-oxoacetamido)-2-methoxynicotinamide] | < 50 | < 50 | < 1000 | < 50 | < 100 | A (an IC50 ratio greater than or equal to 10 fold) | 100 to 1000 | – | – | – | – | – | –
4 | CCc1cc(NC(=O)C(=O)N2C[C@@H](C)CC[C@@H]2c2ccc3sc(C4(CN(C)C)COC4)nc3c2)cnc1N [Compound 1165, N-(6-amino-5-ethylpyridin-3-yl)-2-((2R,5S)-2-(2-(3-((dimethylamino)methyl)oxetan-3-yl)benzo[d]thiazol-5-yl)-5-methylpiperidin-1-yl)-2-oxoacetamide] | < 50 | 50 to 500 | < 1000 | < 50 | < 100 | B (an IC50 ratio greater than or equal to 3 fold but lower than 10 fold) | < 100 | – | – | – | – | – | –
5 | CCc1cc(NC(=O)C(=O)N2C[C@@H](C)CC[C@@H]2c2ccc3sc(C4(C)CCN(C)CC4)nc3c2)cnc1N [Compound 1171, N-(6-amino-5-ethylpyridin-3-yl)-2-((2R,5S)-2-(2-(1,4-dimethylpiperidin-4-yl)benzo[d]thiazol-5-yl)-5-methylpiperidin-1-yl)-2-oxoacetamide] | – | – | – | – | – | A (an IC50 ratio greater than or equal to 10 fold) | – | < 50 | < 50 | < 1000 | < 50 | < 100 | < 100
6 | CCc1cc(NC(=O)C(=O)N2C[C@@H](C)CC[C@@H]2c2ccc3sc(C4CCN(CCF)CC4)nc3c2)cnc1N [Compound 1174, N-(6-amino-5-ethylpyridin-3-yl)-2-((2R,5S)-2-(2-(1-(2-fluoroethyl)piperidin-4-yl)benzo[d]thiazol-5-yl)-5-methylpiperidin-1-yl)-2-oxoacetamide] | < 50 | < 50 | < 1000 | < 50 | < 100 | A (an IC50 ratio greater than or equal to 10 fold) | < 100 | – | – | – | – | – | –
7 | CCc1cc(NC(=O)C(=O)N2C[C@@H](C)CC[C@@H]2c2cccc(OCCN(C)C)c2)cnc1N [Compound 1175, N-(6-amino-5-ethylpyridin-3-yl)-2-((2R,5S)-2-(3-(2-(dimethylamino)ethoxy)phenyl)-5-methylpiperidin-1-yl)-2-oxoacetamide] | < 50 | < 50 | < 1000 | < 50 | < 100 | A (an IC50 ratio greater than or equal to 10 fold) | 100 to 1000 | – | – | – | – | – | –
8 | CCc1cc(NC(=O)C(=O)N2C[C@@H](C)CC[C@@H]2c2cccc(OC[C@@H]3CCN(C)C3)c2)cnc1N [Compound 1178, N-(6-amino-5-ethylpyridin-3-yl)-2-((2R,5S)-5-methyl-2-(3-(((R)-1-methylpyrrolidin-3-yl)methoxy)phenyl)piperidin-1-yl)-2-oxoacetamide] | < 50 | < 50 | < 1000 | < 50 | < 100 | A (an IC50 ratio greater than or equal to 10 fold) | < 100 | – | – | – | – | – | –
9 | CCc1cc(NC(=O)C(=O)N2C[C@@H](C)CC[C@@H]2c2cccc(OC[C@H]3CCN(C)C3)c2)cnc1N [Compound 1179, N-(6-amino-5-ethylpyridin-3-yl)-2-((2R,5S)-5-methyl-2-(3-(((S)-1-methylpyrrolidin-3-yl)methoxy)phenyl)piperidin-1-yl)-2-oxoacetamide] | < 50 | < 50 | < 1000 | < 50 | < 100 | A (an IC50 ratio greater than or equal to 10 fold) | < 100 | – | – | – | – | – | –
10 | Cc1cc(NC(=O)C(=O)N2C[C@@H](C)CC[C@@H]2c2ccc3sc(C4CCN(C5CC5)CC4)nc3c2)cnc1N [Compound 1181, N-(6-amino-5-methylpyridin-3-yl)-2-((2R,5S)-2-(2-(1-cyclopropylpiperidin-4-yl)benzo[d]thiazol-5-yl)-5-methylpiperidin-1-yl)-2-oxoacetamide] | < 50 | < 50 | < 1000 | < 50 | < 100 | B (an IC50 ratio greater than or equal to 3 fold but lower than 10 fold) | < 100 | – | – | – | – | – | –
11 | Cc1cc(NC(=O)C(=O)N2C[C@@H](C)CC[C@@H]2c2ccc3sc(-c4nccn4C)nc3c2)cnc1N [Compound 1186, N-(6-amino-5-methylpyridin-3-yl)-2-((2R,5S)-5-methyl-2-(2-(1-methyl-1H-imidazol-2-yl)benzo[d]thiazol-5-yl)piperidin-1-yl)-2-oxoacetamide] | < 50 | 50 to 500 | < 1000 | < 50 | < 100 | A (an IC50 ratio greater than or equal to 10 fold) | < 100 | – | – | – | – | – | –
12 | CCc1cc(NC(=O)C(=O)N2C[C@@H](C)CC[C@@H]2c2ccc3sc(C4CC5CCC(C4)N5C)nc3c2)cnc1N (stereo partly drawn) [Compound 1187, N-(6-amino-5-ethyl-3-pyridyl)-2-[(2R,5S)-5-methyl-2-[2-(8-methyl-8-azabicyclo[3.2.1]octan-3-yl)-1,3-benzothiazol-5-yl]-1-piperidyl]-2-oxo-acetamide] | < 50 | < 50 | < 1000 | < 50 | < 100 | A (an IC50 ratio greater than or equal to 10 fold) | < 100 | – | – | – | – | – | –
13 | CCc1cc(NC(=O)C(=O)N2C[C@@H](C)CC[C@@H]2c2ccc3sc(-c4nccn4C)nc3c2)cnc1N [Compound 1192, N-(6-amino-5-ethylpyridin-3-yl)-2-((2R,5S)-5-methyl-2-(2-(1-methyl-1H-imidazol-2-yl)benzo[d]thiazol-5-yl)piperidin-1-yl)-2-oxoacetamide] | < 50 | 50 to 500 | < 1000 | < 50 | < 100 | A (an IC50 ratio greater than or equal to 10 fold) | 100 to 1000 | – | – | – | – | – | –
